PubChem BioAssay (NCI)
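Test compounds were applied to cells in 96-well plates for 48 hours at 5 doses. Abbreviation: GI50, concentration required for 50% inhibition of growth. TGI denotes the concentration required for complete inhibition of growth.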

Legend:
Test in all cases: NCI anticancer screen, dose series, 48 h
NCI-H23 lung = tested on: NCI-H23 lung
NCI-H460 lung = tested on: NCI-H460 lung
NCI-H522 lung = tested on: NCI-H522 lung
NCI/ADR-RES ovarian = tested on: NCI/ADR-RES ovarian
OVCAR-3 ovarian = tested on: OVCAR-3 ovarian
OVCAR-4 ovarian = tested on: OVCAR-4 ovarian
OVCAR-5 ovarian = tested on: OVCAR-5 ovarian
OVCAR-8 ovarian = tested on: OVCAR-8 ovarian
PC-3 prostate = tested on: PC-3 prostate
RPMI-8226 leukemia = tested on: RPMI-8226 leukemia
RXF 393 renal = tested on: RXF 393 renal
SF-268 CNS = tested on: SF-268 CNS
SF-295 CNS = tested on: SF-295 CNS
SF-539 CNS = tested on: SF-539 CNS
SK-MEL-2 melanoma = tested on: SK-MEL-2 melanoma
SK-MEL-28 melanoma = tested on: SK-MEL-28 melanoma
SK-MEL-5 melanoma = tested on: SK-MEL-5 melanoma
SK-OV-3 ovarian = tested on: SK-OV-3 ovarian
SN12C renal = tested on: SN12C renal
SNB-19 CNS = tested on: SNB-19 CNS
SNB-75 CNS = tested on: SNB-75 CNS
SR leukemia = tested on: SR leukemia
SW-620 colon = tested on: SW-620 colon
T-47D breast = tested on: T-47D breast
TK-10 renal = tested on: TK-10 renal
U251 CNS = tested on: U251 CNS
UACC-257 melanoma = tested on: UACC-257 melanoma
UACC-62 melanoma = tested on: UACC-62 melanoma
UO-31 renal = tested on: UO-31 renal

Compound `NS(=O)(=O)N(c1cc(C(F)(F)F)cc(C(F)(F)F)c1)C1CCN(Cc2ccc(F)cc2)CC1` has a GI50 (NCI-H23 lung) of 10.4 µM, a TGI (NCI-H23 lung) of 22.1 µM and a GI50 (NCI-H460 lung) of 13.2 µM. It also gave a TGI (NCI-H460 lung) of 31 µM, a GI50 (NCI-H522 lung) of 3.52 µM and a TGI (NCI-H522 lung) of 13.4 µM. It also gave a GI50 (NCI/ADR-RES ovarian) of 6.72 µM, a TGI (NCI/ADR-RES ovarian) of 19.4 µM and a GI50 (OVCAR-3 ovarian) of 7.6 µM. For the same compound, the TGI (OVCAR-3 ovarian) was 20.4 µM, the GI50 (OVCAR-4 ovarian) was 10.5 µM and the TGI (OVCAR-4 ovarian) was 22.2 µM. It also gave a GI50 (OVCAR-5 ovarian) of 10.9 µM, a TGI (OVCAR-5 ovarian) of 23.2 µM and a GI50 (OVCAR-8 ovarian) of 15.5 µM. It also gave a TGI (OVCAR-8 ovarian) of 33.9 µM, a GI50 (PC-3 prostate) of 4.54 µM and a TGI (PC-3 prostate) of 17.6 µM. For the same compound, the GI50 (RPMI-8226 leukemia) was 5.24 µM, the TGI (RPMI-8226 leukemia) was 22.3 µM and the GI50 (RXF 393 renal) was 4.42 µM. The TGI (RXF 393 renal) was 16.6 µM, the GI50 (SF-268 CNS) was 10.9 µM and the TGI (SF-268 CNS) was 22.9 µM. For the same compound, the GI50 (SF-295 CNS) was 13.8 µM, the TGI (SF-295 CNS) was 27.7 µM and the GI50 (SF-539 CNS) was 14.1 µM. It also gave a TGI (SF-539 CNS) of 27.6 µM, a GI50 (SK-MEL-2 melanoma) of 5.87 µM and a TGI (SK-MEL-2 melanoma) of 18.1 µM. It also gave a GI50 (SK-MEL-28 melanoma) of 11.6 µM, a TGI (SK-MEL-28 melanoma) of 23.8 µM and a GI50 (SK-MEL-5 melanoma) of 3.44 µM. For the same compound, the TGI (SK-MEL-5 melanoma) was 12.7 µM, the GI50 (SK-OV-3 ovarian) was 10.9 µM and the TGI (SK-OV-3 ovarian) was 23.3 µM. It also gave a GI50 (SN12C renal) of 2.97 µM, a TGI (SN12C renal) of 11.6 µM and a GI50 (SNB-19 CNS) of 14.3 µM. The TGI (SNB-19 CNS) was 27.8 µM, the GI50 (SNB-75 CNS) was 13.2 µM and the TGI (SNB-75 CNS) was 25.9 µM. The GI50 (SR leukemia) was 2.4 µM, the TGI (SR leukemia) was 9.02 µM and the GI50 (SW-620 colon) was 13.7 µM. For the same compound, the TGI (SW-620 colon) was 30.7 µM, the GI50 (T-47D breast) was 2.74 µM and the TGI (T-47D breast) was 13.9 µM. It also gave a GI50 (TK-10 renal) of 12.2 µM, a TGI (TK-10 renal) of 25.4 µM and a GI50 (U251 CNS) of 10.7 µM. The TGI (U251 CNS) was 24.5 µM, the GI50 (UACC-257 melanoma) was 11.5 µM and the TGI (UACC-257 melanoma) was 25.3 µM. For the same compound, the GI50 (UACC-62 melanoma) was 12.7 µM, the TGI (UACC-62 melanoma) was 25.6 µM and the GI50 (UO-31 renal) was 3.67 µM. For the same compound, the TGI (UO-31 renal) was 16.4 µM.
